“And” between values parts separate entries of the source, which are not always exact repeats. Equal values may be shown once. Toxic doses and inconclusive results are not listed. No stated cut-off is given here; in the data, active means T/C of 150% or more; inactive means T/C below 125%.
Tested on: L1210 leukemia ip in BDF1 mice, survival T/C
Assay: NCI In Vivo Anticancer Drug Screen. Data for tumor model L1210 Leukemia (intraperitoneal) in B6D2F1 (BDF1) mice
Conditions: endpoint: mean survival time, higher = longer survival
Outline: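 Mice bearing the transplanted tumor received compound or vehicle. Survival of the treated group was divided by that of the vehicle-treated control group to give the ratio.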

[1] = dose: 100.0 mg/kg/injection, schedule: Q01DX009 (ip), vehicle: other
[2] = dose: 50.0 mg/kg/injection, schedule: Q01DX001 (ip), vehicle: saline
[3] = dose: 100.0 mg/kg/injection, schedule: Q01DX001 (ip), vehicle: saline
[4] = dose: 200.0 mg/kg/injection, schedule: Q01DX001 (ip), vehicle: saline
[5] = dose: 400.0 mg/kg/injection, schedule: Q01DX001 (ip), vehicle: saline
[6] = dose: 100.0 mg/kg/injection, schedule: Q01DX009 (ip), vehicle: Klucel (hydroxypropylcellulose) (HPC)
[7] = dose: 100.0 mg/kg/injection, schedule: Q04DX003 (ip), vehicle: Klucel (hydroxypropylcellulose) (HPC)
[8] = dose: 200.0 mg/kg/injection, schedule: Q01DX009 (ip), vehicle: Klucel (hydroxypropylcellulose) (HPC)
[9] = dose: 200.0 mg/kg/injection, schedule: Q04DX003 (ip), vehicle: Klucel (hydroxypropylcellulose) (HPC)
[10] = dose: 400.0 mg/kg/injection, schedule: Q01DX009 (ip), vehicle: Klucel (hydroxypropylcellulose) (HPC)
[11] = dose: 400.0 mg/kg/injection, schedule: Q04DX003 (ip), vehicle: Klucel (hydroxypropylcellulose) (HPC)
[12] = dose: 100.0 mg/kg/injection, schedule: Q04DX002 (ip), vehicle: Klucel (hydroxypropylcellulose) (HPC)
[13] = dose: 200.0 mg/kg/injection, schedule: Q04DX002 (ip), vehicle: Klucel (hydroxypropylcellulose) (HPC)
[14] = dose: 400.0 mg/kg/injection, schedule: Q04DX002 (ip), vehicle: Klucel (hydroxypropylcellulose) (HPC)

Measured: T/C

CCN(CC)CC(C)(N)c1c2ccccc2nc2c1ccc1ccccc12 (configuration not stated)
inactive: dose: 50.0 mg/kg/injection, schedule: Q01DX009 (ip), vehicle: other 101 % of control | [1] 111 % of control | dose: 200.0 mg/kg/injection, schedule: Q01DX009 (ip), vehicle: other 119 % of control

COC(=O)C(C)NC(=O)C(C)NC(=O)c1cnc2ccccc2n1 (configuration not stated)
inactive: dose: 100.0 mg/kg/injection, schedule: Q01DX001 (ip), vehicle: carboxymethylcellulose (CMC) 89 % of control | dose: 200.0 mg/kg/injection, schedule: Q01DX001 (ip), vehicle: carboxymethylcellulose (CMC) 93 % of control

O=C(NCc1ccccc1)C(F)(F)F
inactive: dose: 100.0 mg/kg/injection, schedule: Q01DX001 (ip), vehicle: saline with Tween-80 102 % of control | dose: 200.0 mg/kg/injection, schedule: Q01DX001 (ip), vehicle: saline with Tween-80 102 % of control | dose: 400.0 mg/kg/injection, schedule: Q01DX001 (ip), vehicle: saline with Tween-80 100 % of control

CCCCCCCCCCNC(=S)NNC(=O)CCCC(=O)NNC(=S)NCCCCCCCCCC
inactive: [2] 96 % of control | [3] 96 % of control | [4] 90 % of control | [5] 96 % of control

OCc1ccc(OCc2ccccc2)c(OCc2ccccc2)c1
inactive: [1] 87 % of control | dose: 100.0 mg/kg/injection, schedule: Q04DX003 (ip), vehicle: other 94 % of control | dose: 200.0 mg/kg/injection, schedule: Q04DX003 (ip), vehicle: other 98 % of control | dose: 400.0 mg/kg/injection, schedule: Q04DX003 (ip), vehicle: other 90 % of control

O=C(COc1ccc(Cl)cc1Cl)NCc1ccc(Cl)cc1
inactive: [6] 91 % of control | [7] 112 % of control | [8] 96 % of control | [9] 96 % of control | [10] 94 % of control | [11] 95 % of control

Cc1ccc(Nc2cc(Cl)nc(N)n2)cc1Cl
inactive: dose: 100.0 mg/kg/injection, schedule: Q01DX Z (ip), vehicle: methylcellulose (MC) 97 % of control | dose: 200.0 mg/kg/injection, schedule: Q01DX Z (ip), vehicle: methylcellulose (MC) 100 % of control

NC(=O)N/N=C/c1ccc([N+](=O)[O-])cc1
inactive: [12] 96 % of control | [13] 110 % of control | [14] 107 % of control

O=C(Nc1cccc(C2=NCCN2)c1)c1cccc2c(C(=O)Nc3cccc(C4=NCCN4)c3)cccc12
inactive: dose: 15.0 mg/kg/injection, schedule: Q01DX Z (ip), vehicle: carboxymethylcellulose (CMC) 86 % of control

COC(=O)CCC#CC#CCCC(=O)OC
inactive: [6] 97 % of control | [7] 90 % of control | [8] 102 % of control | [9] 95 % of control | [10] 108 % of control | [11] 90 % of control

C#CC(OC(=O)NC(C(=O)OC)C(C)C)(c1ccccc1)c1ccccc1 (configuration not stated)
inactive: dose: 50.0 mg/kg/injection, schedule: Q04DX002 (ip), vehicle: saline with Tween-80 100 % of control | dose: 100.0 mg/kg/injection, schedule: Q04DX002 (ip), vehicle: saline with Tween-80 105 % of control and 114 % of control | dose: 200.0 mg/kg/injection, schedule: Q04DX002 (ip), vehicle: saline with Tween-80 122 % of control

Clc1ccc(NC2=NCCS2)cc1
inactive: [6] 104 % of control | [8] 100 % of control | [10] 93 % of control

COC(=O)c1nc(Cl)nc(SC)c1Cl
inactive: [7] 96 % of control | [9] 110 % of control | [11] 96 % of control

Cc1cccc(Cl)c1NC(=O)Oc1ccc2c(C)cc(=O)oc2c1
inactive: [6] 102 % of control | [8] 100 % of control | [10] 87 % of control

O=C(O)CCC(=O)c1ccc(Br)cc1
inactive: dose: 50.0 mg/kg/injection, schedule: Q01DX009 (ip), vehicle: Klucel (hydroxypropylcellulose) (HPC) 100 % of control | [6] 95 % of control | [8] 101 % of control

II
inactive: dose: 12.0 mg/kg/injection, schedule: Q01DX009 (ip), vehicle: acetone 96 % of control | dose: 25.0 mg/kg/injection, schedule: Q01DX009 (ip), vehicle: acetone 93 % of control | dose: 50.0 mg/kg/injection, schedule: Q01DX009 (ip), vehicle: acetone 106 % of control

COc1coc(CO)cc1=O
inactive: dose: 50.0 mg/kg/injection, schedule: Q01DX009 (ip), vehicle: saline with Tween-80 94 % of control | dose: 100.0 mg/kg/injection, schedule: Q01DX009 (ip), vehicle: saline with Tween-80 97 % of control

CS(=O)(=O)OCCN(CCOS(C)(=O)=O)c1ccc([N+](=O)[O-])c(Cl)c1
inactive: [2] 96 % of control | [3] 96 % of control | [4] 100 % of control | [5] 91 % of control

O=C1C=C2C(=CCOC2O)O1 (configuration not stated)
inactive: dose: 0.25 mg/kg/injection, schedule: Q01DX009 (ip), vehicle: Klucel (hydroxypropylcellulose) (HPC) 97 % of control | dose: 0.5 mg/kg/injection, schedule: Q01DX009 (ip), vehicle: Klucel (hydroxypropylcellulose) (HPC) 103 % of control | dose: 1.0 mg/kg/injection, schedule: Q01DX009 (ip), vehicle: Klucel (hydroxypropylcellulose) (HPC) 109 % of control | dose: 2.0 mg/kg/injection, schedule: Q01DX009 (ip), vehicle: Klucel (hydroxypropylcellulose) (HPC) 104 % of control | dose: 4.0 mg/kg/injection, schedule: Q01DX009 (ip), vehicle: Klucel (hydroxypropylcellulose) (HPC) 101 % of control

O=C(c1ccccc1)c1cc2ccccc2n1S(=O)(=O)c1ccccc1
inactive: [12] 95 % of control | [13] 98 % of control | [14] 95 % of control

C/C(=N\N=C(N)N)c1cccc(NC(=S)Nc2cccc(/C(C)=N/N=C(N)N)c2)c1
inactive: dose: 20.0 mg/kg/injection, schedule: Q01DX005 (ip), vehicle: saline with Tween-80 108 % of control

— PubChem BioAssay AID248 (DTP/NCI, 2004)
